From ChEMBL document CHEMBL1641378, “Understanding DP receptor antagonism using a CoMSIA approach” (Bioorg Med Chem Lett, 2011) come the findings set out here.

The target of the assay is T1, Prostaglandin D2 receptor (Homo sapiens, UniProt Q13258).
T1 sequence (Q13258 whole entry): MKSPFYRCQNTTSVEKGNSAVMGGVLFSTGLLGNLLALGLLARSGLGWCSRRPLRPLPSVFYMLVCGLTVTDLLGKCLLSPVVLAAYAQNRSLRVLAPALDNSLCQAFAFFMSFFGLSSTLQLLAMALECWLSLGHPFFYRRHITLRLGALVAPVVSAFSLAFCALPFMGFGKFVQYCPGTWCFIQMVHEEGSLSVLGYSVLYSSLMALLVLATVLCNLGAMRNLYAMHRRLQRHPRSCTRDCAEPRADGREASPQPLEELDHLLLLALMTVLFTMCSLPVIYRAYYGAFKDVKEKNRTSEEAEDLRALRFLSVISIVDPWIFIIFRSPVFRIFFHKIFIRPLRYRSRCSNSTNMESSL
As to the kind of experiment: Antagonist activity at prostaglandin D2 receptor in human LS174T cells assessed as inhibition of PGD2-induced cAMP accumulation after 15 mins by scintillation proximity assay. In kind it is functional, cell-based.

For orientation: IC50 means the concentration needed to halve the response being measured. `COc1ccc(CCNc2cc(-c3ccc(F)c(/C=N/O)c3)nc(OC)n2)cc1`: the half-inhibitory concentration (IC50) is 4.47 nM.
